Three compounds from PMC6364495, “Peptide–siRNA Supramolecular Particles for Neural Cell Transfection” (Advanced Science, 2018) can be followed below.

Data set [1] can be described thus: Water solubility of peptide. In kind it is physicochemical.
The subject of data set [2] is primary cortical embryonic neurons. In words: Internalization route with endocytosis inhibitors, neurons. The data set is classed as cell-based, mouse. The settings on record: 300 μM amiloride, 30 minutes preincubation before P4 + siRNA-A488, flow cytometry. How it is done:
1-4 days post-transfection cells were washed carefully three times with 1x PBS. Each well was incubated with 200 µL […]
resuspended in 600 µL of media to neutralize the trypsin and were centrifuged for 15 min at […]. Supernatant was removed, and the pellet was re-suspended in approximately 40 μL of media before Flow Cytometry (BD LSRFortessa) was performed. DAPI (Sigma, 5 µg/mL) was added 1-3 min before measurements were taken to determine the absolute number of dead cells (excitation wavelength of 405 nm). Cell populations were gated based on cell size (FSC), granularity of the cytoplasm (SSC), multiple cells (FSC-W), UV fluorescence (DAPI filter). Percentage of positive cells was calculated from alive cells (DAPI negative). All the samples were measured in triplicates. Results were analyzed using FlowJo software.
After 15 div neural cells were treated with either 5 μg/mL chlorpromazine hydrochloride, 1μg/mL fillipin III from Streptomyces filipinensis, 300 μM amiloride hydrochloride or a combination of them in fresh serum-free medium for 30 minutes before incubated with the peptide (52 μM) + siRNA-A488 (100 nM) for 15h. Samples were analyzed using flow cytometry as described in the previous section.
Western blot/ immunocytochemistry […]
On the technique in general: In flow cytometry, cells or beads pass a laser one at a time.

In a further data set the target is T1, Proteinase K (Parengyodontium album, UniProt P06873).
T1 construct: purchased Sigma-Aldrich
T1 sequence (P06873 106-384): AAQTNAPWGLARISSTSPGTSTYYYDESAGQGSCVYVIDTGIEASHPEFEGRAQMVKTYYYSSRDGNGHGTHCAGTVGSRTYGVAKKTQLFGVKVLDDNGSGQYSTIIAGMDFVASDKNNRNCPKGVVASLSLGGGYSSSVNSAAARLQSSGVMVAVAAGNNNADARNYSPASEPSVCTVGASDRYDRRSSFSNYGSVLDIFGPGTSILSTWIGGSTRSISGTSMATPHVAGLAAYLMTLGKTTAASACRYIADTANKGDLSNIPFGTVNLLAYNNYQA
In words: Proteinase K digestion test. In kind it is in vitro ADME, Tritirachium album. The note with it: 50 µM peptide, 0.2 µM siRNA, 25 mM HEPES pH 7.4, 24h, 37C, gel. The protocol:
(§1) (Inhepar®, 5000 U/mL equivalent to) and Milli -Q® water to a final concentration of 0.01 mg/mL (1 U/mL) in a final volume of 10 μL. Samples were incubated at room temperature for 2h. After incubation, samples were run in a native 6% polyacrylamide electrophoresis gel as described in the section above.
(§2) A solution of 40 µM peptide and 0.2 µM DNA dissolved in 10X DNAse I buffer (Invitrogen) was mixed with DNAse I (Invitrogen) for a final enzyme concentration of 0.003 U/µL. The solution was incubated at 37 C and at each time point, 12 µL were mixed with 2.7 µL of 5X TBE buffer in ice to quench the enzyme. Then an aliquot of 4 M NaCl was added to every time point sample to a final concentration of […] after incubation for 3 days at 4°C the samples were ran in an electrophoresis gel.
(§3) Proteinase K Digestion Test
(§4) A previously prepared solution of 50 µM peptide and 0.2 µM siRNA dissolved in buffer 25 mM HEPES pH 7.4 were incubated during 24h at 37C in presence of Proteinase K from Tritirachium album (Sigma-Aldrich). After this time an aliquot of it was ran in an electrophoresis gel as mentioned above.
(§5) Salt stability of P4-siRNA particles
(§6) Sample solutions of 70 µM P4 peptide and 0.2 µM of siRNA in 25 mM HEPES pH 7.4 were incubated with different concentrations of NaCl (0-300 mM) for 24h at room temperature.
(§7) The samples were run in a native 6% polyacrylamide electrophoresis gel prepared manually. […]

Data set [3] has as its system primary cortical embryonic neurons. In kind it is cell-based. The settings on record: 24 h, 104 µM. How it is done:
(§8) Dulbecco’s Modified Eagle Medium (DMEM, Biological Industries), 10% normal horse serum (NHS, GIBCO), 1% penicillin-streptomycin (Pen-Strep, Biological Industries) and 2mM L-glutamine (Biological Industries). After centrifugation and re-suspension, cells were plated and grown to confluence at 37°C, 5% CO 2 (approximately 25-30 days in vitro (div)).
(§9) All the experiments were performed using glial cells from the first passage (Ps1). Passage 1 (Ps1) cells were cultured at a density of 2x10^5 cells/cm2 for 15 days in vitro (div) in DMEM, 1% Pen-Strep and 2mM L-glutamine on non-coated culture plastic (for Western blotting, flow cytometry) or glass (for immunocytochemistry). The cell composition and biochemical characterization of control and reference glial conditions have been described previously2.
(§10) Neurons were obtained from embryonic brains, as described3. Briefly, a time pregnant mouse was sacrificed by cervical dislocation and the embryos were extracted at embryonic day 16 (E16). […]
(§11) resuspended in 600 µL of media to neutralize the trypsin and were centrifuged for 15 min at 1.2 rpm. […] Cell populations were gated based on cell size (FSC), granularity of the cytoplasm (SSC), multiple cells (FSC-W), UV fluorescence (DAPI filter). Percentage of positive cells was calculated from alive cells (DAPI negative). All the samples were measured in triplicates. Results were analyzed using FlowJo software. […]

Data set [4] concerns primary cortical astroglial cells. The data set is classed as cell-based. The settings on record: 24 h, 104 µM. The protocol:
as §8, §9, §10, §11

The target in a further data set is T2, DNAse I (Bos taurus, UniProt P00639).
T2 construct: purchased Invitrogen
T2 sequence (P00639 23-282): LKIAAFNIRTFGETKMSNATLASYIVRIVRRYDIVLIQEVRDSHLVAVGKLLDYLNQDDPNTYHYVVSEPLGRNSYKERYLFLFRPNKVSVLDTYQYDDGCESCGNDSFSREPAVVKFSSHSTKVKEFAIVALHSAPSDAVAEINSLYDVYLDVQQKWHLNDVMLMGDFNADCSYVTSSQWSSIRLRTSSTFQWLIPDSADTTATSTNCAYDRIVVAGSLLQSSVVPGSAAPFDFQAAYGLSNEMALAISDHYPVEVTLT
The data set can be described thus: Salt stability and DNAse I digestion of P4-DNA particles. In kind it is in vitro ADME. The note with it: versus siRNA particles, DNAse I 0.003 U/µL, 37 C, gel. How it is done:
as §1, §2, §3, §4, §5, §6, §7

No end group written: not given here.

Consider “MPVGSLQELAVQKGWRLPEYTVAQESGPPHKREFTITVRVE [P1]”, for which the water solubility entry in data set [1] is listed as “poor water solubility”.
With `N=C(N)NC(=O)c1nc(Cl)c(N)nc1N` [Amiloride, amiloride], the “reduction of uptake of siRNA, neuronal” value in data set [2] was 80% ± 9.1.
Turning to “SIRKLEYEIEELRLRIGGGTFVETGSGTSKQVAKRVAAEKLLTKFKT [P4]”, the “release of siRNA after proteinase K digestion” value at Proteinase K is recorded as “can be released after protease digestion”. Further, in data set [3], the “cell survival, neuronal cells” value is recorded as 89% ± 7. Further, the “cell survival, astroglial cells” value in data set [4] is given as 88% ± 5.5. In addition, on DNAse I, the “salt and enzymatic stability of P4 complexed with dsDNA” value was “lower salt and enzymatic stability”.
